Each structure is given as a SMILES string.

The term melting point denotes the temperature, or range, at which the solid turns liquid.

As for `CCCCc1oc2ccccc2c1C(=O)NCc1ccc2c(-c3ccc(OC)cc3)c(OCC#N)ccc2c1`, the melting point lay in the range of 139 to 142 °C. In turn, `NC(=O)c1ncn(Cc2ccccc2)c1NC(=S)NC(=O)c1ccccc1` yielded a melting point of 181 to 182 °C.

As for `CCSc1ncnc2c(N3CCCCC3)nc(Cl)nc12`, the melting point was in the range of 110 to 111 °C.

As for `Nc1ccc(S(=O)(=O)Nc2ccc(Cl)c3cc[nH]c23)cn1`, the melting point fell in the range of 204 to 206 °C.

Consider `CO[C@@H]1C=C2C=C3C(=C(C)C(=O)N3C)C[C@]2(C)[C@@H](C)[C@H]1OC(=O)c1cccs1`, for which the melting point lay within 148 to 153 °C. `COC(=O)C(O)C(C)(Oc1ccc(Br)cc1)c1ccccc1` (stereo not drawn) gave a melting point of 133 to 135 °C. The figure for `COC(=O)c1scc(C)c1-n1cccc1` is 76 °C; for `CCN1C(=O)CCCc2c(OC)ccc(Nc3ncc(Cl)c(Nc4ccc(N5CCOCC5)cc4OC)n3)c21` it is 218 to 220 °C; for `Cc1ncnn1-c1ccc(N)cc1` it is 145 °C. The figure for `CCCCn1c(=O)n(CCC)c(=O)c2[nH]c(C)nc21` is 174 to 175 °C; for `COC(=O)c1cc(Br)c(Br)o1` it is 56 to 57 °C. As for `OCC(CO)C1c2ccccc2-c2ccccc21`, the melting point turned out to be 101 °C.

In turn, `CCOC(=O)C(CC)C(=O)Nc1cc(Cl)cc(Cl)c1` (stereo not drawn) yielded a melting point of 96.5 to 98 °C. With `CCCCc1ncc(/C=C(\Cc2cccs2)C(=O)O)n1Cc1cccc(OC)c1`, the melting point was 170 to 171 °C. `COc1ccc2c(c1)C(=O)N(CCN(C)CCN1C(=O)c3cc(OC)c(OC)cc3C(C)(C)C1=O)C(=O)C2(C)C`: the melting point lay within 118 to 120 °C. With `O=C(O)c1cn(C2CC2)c2c(F)c(N3CC(CNC(=O)C(F)(F)F)C3)c(F)cc2c1=O`, the melting point fell in the range of 145 to 150 °C. For the compound `Fc1ccc(-c2ccc3[nH]c4c(ccc5cc[nH]c54)c3c2)cc1`, the melting point was above 250 °C. Turning to `CN(C)c1ccc(C2(CNC(=O)Nc3ccccc3CCc3cc(C(C)(C)C)c(O)c(C(C)(C)C)c3)CCCC2)cc1`, the melting point fell in the range of 174 to 175 °C. In turn, `CCOC(=O)c1cn(C)c2nc3cc(N4CC(N(C)C)C4)c(F)cc3cc2c1=O` displayed a melting point of 224 °C. `Cc1ncccc1[N+](=O)[O-]`: the melting point was in the range of 29 to 31 °C. `C[C@@H]1CN(C(=O)N(c2ccccc2)c2ccccc2)[C@@H](C)CN1C(=O)N(c1ccccc1)c1ccccc1` gave a melting point of 255 to 257 °C.

Consider `COc1cc(C(=O)N(C(C)C)C2CCCCC2)ccc1Cn1c(CO)nc2ncccc21`, for which the melting point was in the range of 117 to 119 °C.

As to `O=C(Oc1ccccc1)N1CCC2(CC1)SC(c1ccc(Cl)cc1)c1ccccc12` (stereo not drawn), the melting point lay in the range of 211 to 212 °C. In turn, `CCOC(=O)c1nc(NC)sc1-c1ccncc1` came in with a melting point of 136 to 138 °C.

In the case of `CCCCc1nn(-c2ccccc2C(F)(F)F)c(=O)n1Cc1ccc(-c2ccccc2S(=O)(=O)NC(=O)[C@H]2CC2(C)C)cc1`, the melting point was in the range of 93 to 95 °C.

Compound `O=C1Cn2c(c(Br)c3ccccc32)-c2ccccc2N1` showed a melting point of 247 to 249 °C.

As for `O=C(O)CC1(c2ccc(Cl)cc2)CNC(=O)C1` (stereo not drawn), the melting point was in the range of 190 to 191 °C. `Cc1[nH]nc(NC2CCCCC2)c1C(=O)O` had a melting point of 162 to 163 °C. As to `CC(C)N(C=Nc1ccncc1O)C(C)C`, the melting point lay within 77 to 79 °C. On to `O=C(OCC1OC(c2ccc(Cl)c(Cc3cc4ccccc4s3)c2)C(OC(=O)c2ccccc2)C(OC(=O)c2ccccc2)C1F)c1ccccc1` (stereo not drawn), for which the melting point was 204 to 207 °C. Consider `COC(=O)CCn1c(=O)n(CCN2CCN(c3cccc(OC)c3)CC2)c(=O)c2cscc21`, for which the melting point fell in the range of 136 to 137 °C. For the compound `CC(O)CNCc1nc2cc(-c3ccccc3)nnc2c2ccccc12` (stereo not drawn), the melting point was 161 to 162 °C. For `Cc1cc(N(C)C)nc2ccc(Br)cc12`, the melting point was 81.9 to 84.1 °C. The compound `COc1ccc(-c2ccncc2)cc1-c1ccc(F)c(Cl)c1` registered a melting point of 115 °C. Take `O=C(O)c1ccc(NCCCCCCCCCCCc2ccccc2)cc1`: the melting point was 50 to 52 °C. The figure for `Nc1ccc(Cl)cc1Cc1ccccc1Cl` is 64 to 65 °C. `N#Cc1[nH]n(-c2ccccc2)c(=O)c1N=Nc1cc(S(=O)(=O)Cl)ccc1Cl` showed a melting point of 115 to 120 °C. As to `O=C(O)c1ccc2oc3ncccc3c(=O)c2c1`, the melting point was 293 to 294 °C. With `CN(Cc1nc(-c2cc(C(C)(C)C)c(O)c(C(C)(C)C)c2)cs1)c1ccc([N+](=O)[O-])cc1`, the melting point is 199 to 201 °C.

In turn, `O=C1N(c2c(Cl)cccc2Cl)Cc2cnc(NC3CCCCC3)nc2N1c1ccccc1` returned a melting point of 258 to 259 °C. For the compound `COc1ccccc1N1CCN(CCN(CCCN2CC=C(c3c[nH]c4cc(F)ccc34)CC2)C(C)=O)CC1`, the melting point is 75 to 77 °C. The figure for `CC1(C)[C@@H](CN2CC[C@@H](O)C2)CC[C@@]1(C)NCC(=O)N1C[C@@H](F)C[C@H]1C#N` is 130 to 135 °C. The figure for `NCc1ccc(-c2csc(N=C(N)N)n2)o1` is 160 to 163 °C; for `COC(=O)C1COc2c(C(=O)c3ccccc3)cc(C)cc21` (stereo not drawn) it is 110 to 111 °C. `C=CCOCc1c(CO)sc2c(=O)c(C(=O)NCc3ccc(Cl)cc3)cn(C)c12` showed a melting point of 184 to 185 °C. On to `COc1ccc(C(=O)N2CCN(c3ccc([N+](=O)[O-])c(C=O)c3)CC2)cc1OC`, for which the melting point lay within 196 to 198 °C.

`O=c1[nH]nccc1-c1ccccc1` displayed a melting point of 216 to 219 °C. On to `CC1=CC(O)(c2nc3ccccc3s2)C=C(C)C1=O`, for which the melting point turned out to be 132 °C.

With `CCOC(=O)c1ccc(N2CCN(Cc3c[nH]c4ncccc34)CC2)cc1`, the melting point lay within 196 to 197 °C. Regarding `O=C(CC(=O)C1CC1)Nc1ccc(C(F)(F)F)cc1`, the melting point was 131 to 132 °C. Regarding `OC1CSC(Oc2cc(-c3ccncc3)cc(F)c2F)C(O)C1O` (stereo not drawn), the melting point came out at 151 °C. Regarding `Cc1ccc(S(=O)(=O)Nc2ccc(C#N)cc2Cl)cc1`, the melting point was 186 to 187 °C.

Compound `Nc1cccn2c(Cl)cnc12` had a melting point of 126 to 127 °C. Consider `COc1cc(-c2ncc(Cl)cc2F)c(F)cc1Cl`, for which the melting point lay within 120 to 122 °C. The figure for `CC(=O)Nc1cccc(OCCCCC(=O)O)c1C=O` is 119 to 121 °C. `Cc1cccnc1NC(=O)C(C)(C)C`: the melting point is 90 to 92 °C. The compound `COc1ccc(-c2nc(CCCCCc3nnn[nH]3)oc2-c2ccc(OC)cc2)cc1` displayed a melting point of 150 °C.

Compound `O=c1[nH]c2ccccc2n1CCCN1CCC(O)(c2ccc(Cl)c(C(F)(F)F)c2)CC1` showed a melting point of 189 °C.

`COc1nc(C)nc(NC(=O)NS(=O)(=O)c2cccc3c2OC(C)(C)O3)n1` had a melting point of 160 to 168 °C. In turn, `CN(C)C1(c2ccccc2)CCC(CNC(=O)CCCCCc2c[nH]c3ccc(F)cc23)CC1` (stereo not drawn) showed a melting point of 52 to 54 °C.

In the case of `O=C(N[C@H]1CCCNC1=O)c1cccc(F)c1`, the melting point was 164 to 166 °C. The compound `CCC1CN(c2c(F)cc3c(=O)c(C(=O)O)cn(C4CC4F)c3c2OC)CC1(C)N` (stereo not drawn) came in with a melting point of 113 to 115 °C. The figure for `CC(C)CCCC(C)NC(=O)CCC(=NNC(N)=S)c1ccccc1` (stereo not drawn) is 58 to 65 °C; for `O=C1C(O)OCN1c1ccc(Cl)c(Br)c1` (stereo not drawn) it is 139 to 140 °C; for `Cc1cccc(NC(=O)NCC(=O)N(c2ccccc2)c2ccccc2)c1` it is 240 °C. `COc1ccc(CCNC(=O)CN(C(C)=O)c2cccc(C(N)=O)c2)cc1OC` returned a melting point of 111 to 113 °C. `ON=Cc1ccc(Cl)c(Cl)c1OCc1ccccc1` showed a melting point of 64 to 69 °C. On to `CCOC(=O)c1ccc(NC(=O)COC)cc1NC(=O)COC`, for which the melting point is 90 to 91 °C.

Consider `CC(C)C1(C)Cc2cc(O)c(Cl)c(Cl)c2C1=O` (stereo not drawn), for which the melting point was found to be 215 °C.

For the compound `OC1CCc2oc3c(Cl)cc(Br)cc3c2C1` (single isomer, unassigned; (-)), the melting point lay within 236 to 240 °C. Compound `CCOC(=O)c1cc(=O)c2c(OCCOc3ccc4c(c3)OCO4)cccc2o1` displayed a melting point of 161 to 162 °C. Consider `COCCc1nc2c(N)nc3ccccc3c2n1CCCCNC(=O)c1ccc(-n2cccc2)cc1`, for which the melting point lay within 173 to 175 °C. The figure for `Cn1c(=O)c2c(ncn2CCCN2CC=C(c3c[nH]c4ccccc34)CC2)n(C)c1=O` is 243 °C. In turn, `Cc1cccc2nc3n(c12)CC(c1ccccn1)S3=O` (stereo not drawn) returned a melting point of 148 °C. `CN(C(=O)c1cccc(S(=O)(=O)N(C)c2ccc(S(C)=O)cc2)c1)c1ccc(Cl)cc1F` (stereo not drawn): the melting point was in the range of 104 to 106 °C.

In turn, `Nc1nc2c(s1)CCN(CC=Cc1ccsc1)CC2` displayed a melting point of 128 to 132 °C. The figure for `O=C(Nc1ccccc1O)C(F)(F)C(O)(Cn1cncn1)c1ccc(F)cc1F` (stereo not drawn) is 121 to 126 °C; for `CCOC(=O)c1ncn2c1CN(Cc1ccc(OC)cc1OC)C(=O)c1cc(F)ccc1-2` it is 159 to 160 °C. The figure for `Nc1nnc2c3c(c(N4CCCCC4)nn12)CCCC3` is 230 to 232 °C; for `c1ccc2c(N3CCOCC3)nc(N3CCOCC3)nc2c1` it is 172 to 174 °C; for `CC(C)(C)c1ccc(C(=O)c2ccc3n2Cc2ccccc2N(C(=O)COc2ccc(Cl)cc2)C3)cc1` it is 171 °C. On to `CC=CC(=O)Nc1ccc2c(Nc3cccc(Br)c3)ncnc2c1`, for which the melting point is above 250 °C. `COC(=O)CNC(=O)c1ccc(C(=O)NS(=O)(=O)c2ccc(OC)cc2)cn1` came in with a melting point of 150 to 152 °C.

For the compound `Cc1ccc(S(=O)(=O)Nc2nc(-c3cccc(-c4ccccc4)c3)cs2)cc1`, the melting point was 153 to 155 °C. As to `O=[N+]([O-])c1ccc(F)c(-c2cccc(CO)c2)c1`, the melting point was in the range of 113 to 114 °C.

On to `O=C(Cc1ccc(O)c([N+](=O)[O-])c1)N[C@H]1C[C@H](C(=O)O)Nc2cc(Cl)cc(Cl)c21` (relative stereo), for which the melting point was 245 to 247 °C. The figure for `COCCc1sc2ncnc(N)c2c1-c1ccc(NC(=O)c2ccccc2)cc1` is 200 to 202 °C.

On to `c1cn(CCCc2ccc(OCc3coc(C4CCCCC4)n3)cc2)cn1`, for which the melting point was 46 to 47 °C.

The record behind these values is a melting point compilation (Tetko et al.; mined from patent text by program, amines drawn as free bases though some values may be those of a salt).
